Common to all, as to assay type: cell-based
Assay [1] relates to Staphylococcus aureus (ATTC 25923). Put plainly: microbe, parasite or virus in culture. The note with it: Example 2, values separated by / are repeat tests. The method, boiled down: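 Di-TFA salts tested in duplicate at 0.5–200 μg/ml against exponential-phase bacteria at 2×10^6 cfu/ml grown in 2% peptone water. Growth judged by well turbidity, with no-peptide and gentamicin controls.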

The subject of assay [2] is methicillin resistant Staphylococcus aureus (ATCC 33591). Nature of the assay: microbe, parasite or virus in culture. The note with it: Staphylococcus aureus, ATCC 33591 / MRSA, Example 2; values separated by / are repeat tests; read-out: Antimicrobial potency (MIC) MRSA. Summed up:
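Di-TFA salts tested in duplicate at 200 down to 0.5 μg/ml against exponentially grown bacteria at 2×10^6 cfu/ml. Growth judged by well turbidity, with no-peptide and gentamicin controls.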

Assay [3] has as its system methicillin resistant Staphylococcus epidermidis (ATCC 27626). Nature of the assay: microbe, parasite or virus in culture. The note with it: Example 2, values separated by / are repeat tests. The method, boiled down: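 Exponentially grown bacteria (2% peptone water) at 2×10^6 cfu/ml exposed in duplicate to di-TFA salts at 0.5–200 μg/ml. Growth or no growth judged by well turbidity; no-peptide and gentamicin controls included.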

The subject of assay [4] is Escherichia coli (ATTC 25922). Nature of the assay: microbe, parasite or virus in culture. The note with it: Escherichia coli, Example 2; values separated by / are repeat tests; read-out: Antimicrobial potency (MIC) E. coli. Summed up: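 Broth dilution in 2% Bacto Peptone water, inoculum 2×10^6 cfu/ml of exponential-phase bacteria; compounds (di-TFA salts) tested in duplicate at 200 down to 0.5 μg/ml. Growth judged by well turbidity, with no-peptide negative and gentamicin positive controls.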

For another assay, the system named is human red blood cells. Put plainly: cells. The note with it: Homo sapiens, Erythrocyte; Example 2; highest concentration tested 1000 μg/ml; * low solubility in the test media; read-out: Toxicity RBC (EC50). The method, boiled down: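 Washed heparinized RBCs, diluted to 10% hematocrit then to 1% v/v final, incubated with compounds in PBS (1–1000 μg/mL) for 1 h at 37 °C with agitation. Hemoglobin release read at 405 nm against PBS (0%) and 0.1% Triton X-100 (100%); value reported is concentration giving 50% hemolysis.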

The next assay has as its system A20. Put plainly: cells. The procedure: Cancer Cell Lines A20 or MethA Anticancer assays: 500 μg/ml
Assay [5] concerns MRC-5. Nature of the assay: Toxicity assay MRC-5. The note with it: highest concentration tested 500 μg/ml. The protocol: Cells for Toxicity Studies Used MRC-5 and human RBC MRC-5 assay: 500 μg/ml
A further assay relates to DU-145. Nature of the assay: Compound 7 panel screening. The note with it: Homo sapiens, prostate carcinoma. The protocol: (§1) Compound 7 described in Example 2 was screened against two normal cell lines and nine cancer cell lines.
(§2) All cell lines were of human origin. Stock solution of compound 7 was dissolved in assay media containing 10% DMSO. Three parallel experiments were performed against each cell line.

The next assay relates to FEMX. Nature of the assay: Compound 7 panel screening. The note with it: Homo sapiens, Fem-X, skin melanoma. The procedure:
as §1, §2

The next assay concerns HT-29. Put plainly: Compound 7 panel screening. The note with it: Homo sapiens, colon colorectal adenocarcinoma. The protocol: as §1, §2
For a further assay, the system named is HUV-EC-C. Put plainly: Compound 7 panel screening. The note with it: Homo sapiens, umbilical vein, normal, endothelial. The procedure:
as §1, §2

The test system of another assay is Kelly. Put plainly: Compound 7 panel screening. The note with it: Homo sapiens, neuroblastoma. The procedure: as §1, §2
Another assay concerns MDA-MB435. Put plainly: Compound 7 panel screening. The note with it: Homo sapiens, MDA-MB-435, breast carcinoma. The procedure:
as §1, §2

Assay [6] has as its system MRC-5. Put plainly: Compound 7 panel screening. The note with it: Homo sapiens, MRC5, lung, normal, fibroblast. The protocol: as §1, §2
The subject of the next assay is OVCAR-3. Nature of the assay: Compound 7 panel screening. The note with it: Homo sapiens, ovary adenocarcinoma. The procedure:
as §1, §2

In another assay the test system is Ramos. Put plainly: Compound 7 panel screening. The note with it: Homo sapiens, Burkitt's lymphoma. The procedure:
as §1, §2

The test system of the next assay is UT-SCC-24A. Put plainly: Compound 7 panel screening. The note with it: Homo sapiens, tongue squamous oral carcinoma. The protocol:
as §1, §2

In the next assay the test system is UT-SCC-34A. Put plainly: Compound 7 panel screening. The note with it: Homo sapiens, supraglottic larynx squamous oral carcinoma. The protocol:
as §1, §2

In brackets after ≈: the same amount, converted by molar mass.

This is an account of results in patent US8809280B2, “Therapeutic peptides” (Lytix Biopharma AS, priority 2009, dated 2014).

Consider `NCCNC(=O)C(CN)(Cc1ccc2ccccc2c1)Cc1ccc2ccccc2c1` [Compound 7, 3-amino-N-(2-aminoethyl)-2,2-bis(naphthalen-2-ylmethyl)propanamide], for which, in assay [1], the “Antimicrobial potency (MIC) S. aureus” value is 5 µg/mL. For the same compound, the MIC in [1] (Staphylococcus aureus, read-out: Antimicrobial potency (MIC) S. aureus) came to 2.5 µg/mL (≈ 6.07 µM); in assay [2], 5 µg/mL (≈ 12.1 µM); in [3] (Staphylococcus epidermidis, ATCC 27626 / MRSE, read-out: Antimicrobial potency (MIC) MRSE), 2.5 µg/mL (≈ 6.07 µM); in assay [4], 15 µg/mL (≈ 36.4 µM). Further, the “Antimicrobial potency (MIC) MRSE” value in [3] came to 5 µg/mL. In addition, the half-maximal effective concentration (EC50) (commonly the concentration at which the effect is half-maximal) in the assay with human red blood cells was found to be 292 µg/mL (≈ 710 µM). For the same compound, in the assay with A20 (Example 2, highest concentration tested 500 μg/ml, * low solubility in the test media (Table 2)), the “Anticancer potency (IC50) A20” value amounted to 0.7 µg/mL. Also, in the assay with A20 (ratio of MRC-5 to A20 values), the “Anti-Cancer Selectivity MRC-5/A20” value is given as 19.3-20. Further, in the assay with A20 (ratio of RBC EC50 to A20 IC50), the “Anti-Cancer Selectivity RBC/A20” value came out at 417. For the same compound, in the assay with MRC-5 [5] (Example 2), the “Toxicity MRC-5” value amounted to 14 µg/mL. For the same compound, the IC50 – broadly, the concentration needed to halve the response being measured – came to 13.5 µg/mL (≈ 32.8 µM) in the assay with MRC-5 [5] (Homo sapiens, MRC5, Example 2); 15.2 µg/mL (≈ 37 µM) with DU-145; 17.1 µg/mL (≈ 41.6 µM) with FEMX; 15.4 µg/mL (≈ 37.5 µM) in the assay on HT-29; 3.81 µg/mL (≈ 9.26 µM) in the assay on HUV-EC-C; 3.9 µg/mL (≈ 9.48 µM) in the assay on Kelly. Besides, the IC50 with MDA-MB435 was found to be 6.54 µg/mL (≈ 15.9 µM); in the assay with MRC-5 [6], 8.21 µg/mL (≈ 19.9 µM); with OVCAR-3 it was 18.1 µg/mL (≈ 43.9 µM); in the assay on Ramos, 2.61 µg/mL (≈ 6.34 µM); in the assay on UT-SCC-24A it was 14.2 µg/mL (≈ 34.5 µM); in the assay on UT-SCC-34A, 16.2 µg/mL (≈ 39.3 µM).
